Our source for the melting point values is patent US7423030B2, “1-amino-phthalazine derivatives, the preparation and the therapeutic use thereof” (Sanofi-Aventis, priority 2004, dated 2008).

Structures can show the parent of a compound that is named as a salt.

One may read the melting point as the temperature, or range, at which the solid turns liquid. With `COc1ccc(-c2nnc(NC3CCN(Cc4ccc(CO)cc4)CC3)c3cc(OC)ccc23)cc1.Cl.Cl` (hydrate or solvate), the melting point was determined as 294 °C.
For `COc1ccc(-c2nnc(NC3CCN(Cc4ccc(CN5CCCC5)cc4)CC3)c3cc(OC)ccc23)cc1.Cl.Cl.Cl` (hydrate or solvate) the value was 222 °C; for `COc1ccc(OC)c(-c2nnc(NC3CCN(Cc4ccc5occc5c4)CC3)c3cc(OC)ccc23)c1.Cl.Cl` (hydrate or solvate), 250 °C; for `COc1ccc2c(-c3ccc(C)s3)nnc(NC3CCN(Cc4ccccc4)CC3)c2c1` (as salt: salt) (hydrate or solvate) [Compound 16, N-(1-benzylpiperidin-4-yl)-7-methoxy-4-(5-methylthiophen-2-yl)phthalazin-1-amine], 155 °C.
With `COc1ccc2c(-c3cccnc3)nnc(NC3CCN(Cc4ccc5ccccc5c4)CC3)c2c1.Cl.Cl.Cl` (hydrate or solvate) the figure was 225 °C.
For `COc1ccc(-c2nnc(NC3CCN(Cc4ccc(C#N)cc4)CC3)c3cc(OC)ccc23)cc1` (as salt: HCl) (hydrate or solvate) [Compound 108, N-[1-(4-cyanobenzyl)piperidin-4-yl)-7-methoxy-4-(4-methoxyphenyl)phthalazin-1-amine] the value was 270 °C; for `COc1ccc(-c2nnc(NC3CCN(Cc4c[nH]c5ccccc45)CC3)c3cc(OC)ccc23)cc1` (as salt: salt) (hydrate or solvate) [Compound 65, N-[1-(1H-indol-3-ylmethyl)piperidin-4-yl]-7-methoxy-4-(4-methoxyphenyl)phthalazin-1-amine], 257 °C.
For the compound `COc1ccc2c(-c3ccc(C)c(C)c3)nnc(NC3CCN(Cc4ccc5ccccc5c4)CC3)c2c1.Cl.Cl` (hydrate or solvate), the melting point turned out to be 210 °C.
For `COc1ccc2c(-c3cccs3)nnc(NC3CCN(Cc4ccccc4)CC3)c2c1` (as salt: salt) (hydrate or solvate) [Compound 8, N-(1-benzylpiperidin-4-yl)-7-methoxy-4-(thiophen-2-yl)phthalazin-1-amine] the value was 115 °C; for `COc1ccc(-c2nnc(NC3CC4CCC(C3)N4Cc3ccc4ccccc4c3)c3cc(OC)ccc23)cc1` (stereo not drawn) (as salt: salt) (hydrate or solvate), 176 °C; for `COc1ccc(CN2CCC(Nc3nnc(-c4ccc(OC)cc4)c4ccc(OC)cc34)CC2)cc1.Cl.Cl` (hydrate or solvate), 216 °C.
Compound `COc1ccc(-c2nnc(NC3CCN(Cc4ccc(NC=O)cc4)CC3)c3cc(OC)ccc23)cc1.Cl.Cl` (hydrate or solvate) came in with a melting point of 293 °C.
In turn, `COc1ccc2cnnc(NC3CCN(Cc4ccc5ccccc5c4)CC3)c2c1` (as salt: HCl) (hydrate or solvate) [Compound 70, 7-methoxy-N-[1-(2-naphthylmethyl)piperidin-4-yl]-phthalazin-1-amine] showed a melting point of 189 °C.
With `COc1ccc2c(CO)nnc(NC3CCN(Cc4ccc5ccccc5c4)CC3)c2c1` [Example 48, 4-Hydroxymethyl-7-methoxy-N-[1-(naphthalen-2-ylmethyl)piperidin-4-yl]phthalazin-1-amine] the figure was 102 °C; with `COc1ccc(-c2nnc(N[C@@H]3CCN(Cc4ccc5ccccc5c4)C3)c3cc(OC)ccc23)cc1.Cl.Cl` (hydrate or solvate), 254 °C.
With `COc1ccc(-c2nnc(NC3CCN(Cc4ccc5c(ccn5C)c4)CC3)c3cc(OC)ccc23)cc1` (as salt: salt) (hydrate or solvate) [Compound 100, 7-methoxy-4-(4-methoxyphenyl)-N-{1-[(1-methyl-1H-indol-5-yl)methyl]piperidin-4-yl}phthalazin-1-amine] the figure was 161 °C.
For `COc1ccc(-c2nnc(NC3CCN(C/C=C/c4ccccc4)CC3)c3cc(OC)ccc23)cc1.Cl.Cl` (hydrate or solvate) the value was 210 °C; for `COc1ccc(-c2nnc(NC3CCN(Cc4ccc(C)c(C)c4)CC3)c3cc(OC)ccc23)cc1` (as salt: salt) (hydrate or solvate) [Compound 29, N-[1-(3,4-dimethylbenzyl)piperidin-4-yl]-7-methoxy-4-(4-methoxyphenyl)phthalazin-1-amine], 130 °C; for `COC(=O)c1ccc(CN2CCC(Nc3nnc(-c4ccc(OC)cc4)c4ccc(OC)cc34)CC2)cc1` (as salt: HCl) (hydrate or solvate) [Compound 107, methyl {4-[(4-{[7-methoxy-4-(4-methoxyphenyl)phthalazin-1-yl]amino}piperidin-1-yl)methyl]phenyl}carboxylate], 241 °C.
With `COc1cc(-c2ccccc2)c2cnnc(NC3CCN(Cc4ccc5ccccc5c4)CC3)c2c1.Cl.Cl` (hydrate or solvate), the melting point stood at 199 °C.
With `COc1ccc2c(-c3ccccc3)nnc(NC3CCN(Cc4ccc5ccccc5c4)CC3)c2c1` (as salt: salt) (hydrate or solvate) [Compound 1, 7-methoxy-N-[1-(naphthalen-2-ylmethyl)piperidin-4-yl]-4-phenylphthalazin-1-amine] the figure was 121 °C; with `COc1ccc(-c2nnc(NC3CCN(Cc4ccc5ncsc5c4)CC3)c3cc(OC)ccc23)cc1` (as salt: salt) (hydrate or solvate) [Compound 59, N-[1-(1,3-benzothiazol-6-ylmethyl)piperidin-4-yl]-7-methoxy-4-(4-methoxyphenyl)phthalazin-1-amine], 180 °C.
With `COc1ccc(-c2nnc(NC3CCN(Cc4ccc(Cl)cc4)CC3)c3cc(OC)ccc23)cc1.Cl.Cl` (hydrate or solvate) the figure was 277 °C; with `COc1ccc(-c2nnc(NC3CCN(Cc4ccc5ccccc5c4)CC3)c3cc(OC)cc(OC)c23)cc1.Cl.Cl` (hydrate or solvate), 212 °C.
For `COc1ccc(-c2nnc(NC3CCN(Cc4ccc(C)cc4)CC3)c3cc(OC)ccc23)cc1` (as salt: HCl) [Compound 75, 7-methoxy-4-(4-methoxyphenyl)-N-[1-(4-methylbenzyl)piperidin-4-yl]phthalazin-1-amine] the value was 148 °C; for `COc1ccc(-c2nnc(NC3CCN(Cc4ccccc4)CC3)c3cc(OC)cc(OC)c23)cc1` [Compound 11, N-(1-benzylpiperidin-4-yl)-5,7-dimethoxy-4-(4-methoxyphenyl)phthalazin-1-amine], 168 °C.
With `COc1ccc2c(-c3ccccc3OC)nnc(NC3CCN(Cc4ccc5ccccc5c4)CC3)c2c1` (as salt: salt) (hydrate or solvate) [Compound 2, 7-methoxy-4-(2-methoxyphenyl)-N-[1-(naphthalen-2-ylmethyl)piperidin-4-yl]phthalazin-1-amine], the melting point worked out at 158 °C.
On to `CCc1nnc(NC2CCN(Cc3ccc4ccccc4c3)CC2)c2cc(OC)cc(OC)c12` (as salt: salt) (hydrate or solvate) [Compound 23, 5,7-Dimethoxy-4-ethyl-N-[1-(naphthalen-2-ylmethyl)piperidin-4-yl]phthalazin-1-amine], for which the melting point was determined as 250 °C.
Compound `COc1ccc(-c2nnc(NC3CCN(Cc4ccc5oc(=O)ccc5c4)CC3)c3cc(OC)ccc23)cc1.Cl.Cl` (hydrate or solvate) yielded a melting point of 293 °C.
For `CCc1nnc(NC2CCN(Cc3ccc4ccccc4c3)CC2)c2cc(OC)ccc12` (as salt: salt) (hydrate or solvate) [Compound 20, 4-Ethyl-7-methoxy-N-[1-(naphthalen-2-ylmethyl)piperidin-4-yl]phthalazin-1-amine] the value was 135 °C; for `COc1ccc2c(-c3ccc(Br)cc3)nnc(NC3CCN(Cc4ccc5ccccc5c4)CC3)c2c1.Cl.Cl` (hydrate or solvate), 246 °C; for `COc1ccc(-c2nnc(NC3CCN(Cc4ccc5ccccc5c4)CC3)c3cc(OC)ccc23)cc1` (as salt: salt) (hydrate or solvate) [Compound 3, 7-methoxy-4-(4-methoxyphenyl)-N-[1-(naphthalen-2-ylmethyl)piperidin-4-yl]phthalazin-1-amine], 195 °C.
With `COc1ccc2c(COCc3ccccc3)nnc(NC3CCN(Cc4ccc5ccccc5c4)CC3)c2c1.Cl.Cl` the figure was 284 °C; with `Fc1ccc(-c2nnc(NC3CCN(Cc4ccc5ccccc5c4)CC3)c3cc(F)ccc23)cc1` [Compound 106, 7-Fluoro-4-(4-fluorophenyl)-N-[1-(naphthalen-2-ylmethyl)piperidin-4-yl]phthalazin-1-amine], 207 °C; with `COc1cc(OC)c2c(Cc3ccccc3)nnc(NC3CCN(Cc4ccc5ccccc5c4)CC3)c2c1` [Compound 22, 4-Benzyl-5,7-dimethoxy-N-[1-(naphthalen-2-ylmethyl)piperidin-4-yl]phthalazin-1-amine], 163 °C.
With `COc1ccc(-c2nnc(NC3CCN(Cc4ccc(C(C)=O)cc4)CC3)c3cc(OC)ccc23)cc1` (as salt: HCl) (hydrate or solvate) [Compound 121, 1-{4-[(4-{[7-methoxy-4-(4-methoxyphenyl)phthalazin-1-yl]amino}piperidin-1-yl)methyl]phenyl}ethanone] the figure was 241 °C; with `COc1ccc(-c2nnc(NC3CCN(Cc4ccc(CN)cc4)CC3)c3cc(OC)ccc23)cc1.Cl.Cl.Cl`, 203 °C.
Compound `COc1ccc(-c2nnc(NC3CCN(Cc4ccc5occc5c4)CC3)c3cc(OC)ccc23)cc1` (as salt: salt) (hydrate or solvate) [Compound 26, N-[1-(1-benzofuran-5-ylmethyl)piperidin-4-yl]-7-methoxy-4-(4-methoxyphenyl)phthalazin-1-amine] yielded a melting point of 160 °C.
For `COc1ccc(-c2nnc(NC3CCN(Cc4cccc(C#N)c4)CC3)c3cc(OC)ccc23)cc1` (as salt: salt) (hydrate or solvate) [Compound 18, N-[1-(3-cyanophenylmethyl)-piperidin-4-yl]-7-methoxy-4-(4-methoxyphenyl)phthalazin-1-amine] the value was 115 °C.
